Here are results for seven molecules from patent US20130303788A1, “METHOD OF PRODUCING BIPHENOLIC COMPOUND, NOVEL BIPHENYL COMPOUND AND SYNTHESIS METHOD THEREOF, AND PHARMACEUTICAL COMPOSITION FOR TREATING PARKINSON'S DISEASE” (Tzu Chi University, priority 2012, published 2013).

Data set [1] relates to SH-SY5Y human neuroblastoma cells. Nature of the data set: Effects on oxidative stress (TBHP or CHP), MTT assay. As to conditions: for prevention of cell death (relative cell viability) after exposure to CHP / prevention of cell death (relative cell viability) after exposure to TBHP: 10 μM for 30 minutes, vs pathological control, FIG. 9; for prevention of cell death (relative cell viability) after exposure to CHP: then CHP 300 μM for 3 hours; for prevention of cell death (relative cell viability) after exposure to TBHP: then TBHP 300 μM for 3 hours. It counts as cell-based. As for the experimental part: (§1) 3-(4,5-Dimethylthiazol-2-yl)-2,5-diphenyltetrazolium bromide (MTT) assay was conducted generally as follows. A MTT solution was added to culture of the cells in the respective well so that a MTT concentration of 0.5 mg/mL was reached, followed by cultivation for 4 hours. The liquid in the respective well was removed, and dimethylsulfoxide (DMSO) was added into the respective well to dissolve formazan dye. Absorbance of the mixture in the respective well at 570 nm (OD570) was measured using an OPTImax microplate reader (Molecular Devices).
The SH-SY5Y human neuroblastoma cells were respectively treated with products 1, 2, 3, 4, 5, 7, and 3,3′-diallyl-biphenyl-4,4′-diol (compound 55) (10 μM) for 30 minutes. 3,3′-diallyl-biphenyl-4,4′-diol (compound 55) was prepared from commercially available 4,4′-biphenol (compound 54) generally according to the method as described in Ablard, F. et al., Bioorg. Med. Chem. Lett. 2007, 17, 4428. Subsequently, the SH-SY5Y human neuroblastoma cells were exposed to cumene hydroperoxide (CHP) or tert-butyl hydroperoxide (TBHP) (300 μM, Riedel-de Haen) for 3 hours after the treatment with the respective biphenolic compound of formula (I).
(§2) Cell viability was evaluated as follows. The SH-SY5Y human neuroblastoma cells were subjected to the MTT assay as described in section 1 of General Procedures. The relative cell viability (%) was calculated by substituting the absorbance into the following formula:
where D=relative cell viability • E=OD570 of the pathological control, or the SH-SY5Y human neuroblastoma cells treated with the respective biphenolic compound of formula (I) • F=OD570 of the normal control The obtained data were subjected to the statistical analysis as described in section 5 of General Procedures.
In general terms: Tetrazolium assays rely on reduction of a dye to a coloured formazan, in cell work by metabolically active cells.

For data set [2], the system named is excitotoxicity induced by excitatory amino acids. As to conditions: Lin Yi-Ruu et al. (2006); cited from earlier work.
For the next data set, the system named is inflammatory pain. To be noted: Lin Yi-Ruu et al. (2007); cited from earlier work.
For data set [3], the system named is SH-SY5Y human neuroblastoma cells. Description: Effects on MPP+ neurotoxicity, MTT assay. To be noted: 10 μM or 30 μM; MPP+ 1 mM for 24 hours; FIG. 10. It counts as cell-based. As for the experimental part: as §1
SH-SY5Y human neuroblastoma cells were exposed to neurotoxic 1-methyl-4-phenylpyridinium (MPP^+) (1 mM) for 24 hours, while the same were treated with the respective one of products 1, 2, 3, 4, 5, 7, and 3,3′-diallyl-biphenyl-4,4′-diol (compound 55) (10 μM or 30 μM).
as §2
where G=relative cell viability • H=OD570 of the pathological control, or the SH-SY5Y human neuroblastoma cells treated with the respective biphenolic compound of formula (I) • I=OD570 of the normal control The obtained data were subjected to the statistical analysis as described in section 5 of General Procedures.

In data set [4] the test system is mouse model of PD (6-OHDA unilateral striatal lesion). Description: Apomorphine-induced rotation test in 6-OHDA mouse model of PD. The data set is classed as in vivo, NMRI mice. As for the experimental part: The respective NMRI mouse was anesthetized with ketamine ([…], intraperitoneally). Subsequently, the respective NMRI mouse was placed into a stereotactic frame with nose and ear bars specially designed for mice. 6-hydroxydopamine (6-OHDA) was injected with saline containing 0.02% ascorbic acid (as a vehicle) into the right striatum of the respective NMRI mouse so that unilateral striatal lesion was induced (i.e., damage to dopaminergic neurons in the unilateral striatum was induced). The injection was conducted at a rate of 1 μL/minute using a Hamilton syringe at the following coordinates: AP: −0.9 mm; ML: −1.9 mm; DV: −2.2 mm with respect to bregma, and a final dose of 15 μg was administered. The needle was left standing for 5 minutes after the injection was finished, and was slowly withdrawn.
The respective NMRI mouse was allowed to habituate to the ambient environment for 10 minutes before the apomorphine-induced rotation test was performed. Apomorphine was then injected intraperitoneally into the respective NMRI mouse at a dose of 0.5 mg/kg. The respective NMRI mouse was placed in a glass bowl with a diameter of 20 cm and was attached to an automatic rotometer (TSE, Bad Homburg, Germany) via a specially designed harness. Each circular movement exceeding 30° was recorded. The contralateral movements (toward the nonlesioned side) and ipsilateral movements (toward the lesioned side) of the NMRI mice were counted during a period of 60 minutes. The net rotation was calculated according to the following formula:
where A=net rotation • B=the total number of ipsilateral movements during the period of 60 minutes • C=the total number of contralateral movements during the period of 60 minutes 4. Determination of TH (Tyrosine Hydroxylase) Expression Level and iNOS (Inducible Nitric Oxide Synthase) Expression Level: […]
6-OHDA was injected into NMRI mice according to the method as described in section 2 of General procedures. Product 1 or product 2 was administered intraperitoneally to the respective NMRI mouse at a dose of 5 mg/kg, 1 mg/kg, 0.5 mg/kg, 0.1 mg/kg, or 0.05 mg/kg for 14 consecutive days, starting on Day 7 after the 6-OHDA injection. NMRI mice into which a vehicle (saline containing 0.02% ascorbic acid) was injected (generally according to the method as described in section 2 of General Procedures, except that 6-OHDA was not injected), and which were not treated with product 1 or product 2 after the injection of the vehicle, served as a sham operated control. NMRI mice into which 6-OHDA was injected and which were not treated with product 1 or product 2 after the 6-OHDA injection served as a pathological control. The rotational behavior of the NMRI mice was evaluated using the apomorphine-induced rotation test as described in section 3 of General Procedures on Days 7, 14, and 21 after the 6-OHDA injection.

Data set [5] relates to TH (Tyrosine Hydroxylase). Nature of the data set: TH expression level (TH immunohistochemistry) in 6-OHDA mouse model of PD. The data set is classed as in vivo, NMRI mice. As to conditions: i.p. 14 consecutive days starting Day 7, Day 21 after 6-OHDA, 16. As for the experimental part:
The respective NMRI mouse was deeply anaesthetized with thiopental (50 mg/kg, intraperitoneally). The respective NMRI mouse was perfused transcardially with a heparin solution (0.05% heparin in 0.1 M PBS), and was subsequently perfused with 100 mL of ice-cold fixative (4% paraformaldehyde in 0.1 M PBS). The brain of the respective NMRI mouse was removed and was postfixed in the same ice-cold fixative for 12 hours, followed by dehydration in 30% sucrose in 0.1 M PBS. The brain was frozen and was subjected to tissue slicing. Serial coronal sections (a thickness of 20 μm) were cut on a freezing microtome and were placed in PBS. The sections were later processed for free-floating TH or iNOS immunohistochemistry.
The sections were rinsed three times with PBS (30 minutes for each time), were treated with 3% H2O2/10% methanol in PBS for 30 minutes for quenching the endogenous peroxidase activity, and were rinsed three times with PBS. After preincubation with 0.5% normal goat serum (NGS)/0.2% Triton in PBS, the sections were incubated with a primary antibody (anti-TH antibody or anti-iNOS antibody, 1:5000, Novus Biologicals, Inc., Littleton, Colo., USA) in 0.5% NGS/PBS at 4° C. for 16-18 hours. After being rinsed three times with PBS, the sections were incubated with a biotinylated goat anti-rabbit IgG (1:200) in PBS for 1 hour. Subsequently, the sections were rinsed three times with PBS and were stained with 0.05% diaminobenzidine/0.03% H2O2 in PBS for 5 minutes. The respective section was placed on a gelatin-coated slide, dehydrated through ascending concentrations of alcohol, and covered with a slipcover for observation under a light microscope.
The obtained data were subjected to the statistical analysis as described in section 5 of General Procedures. TH expression level in the striatum was determined according to the method as described in section 4 of General Procedures.
TH expression level in the striatum and the substantia nigra (SN), and iNOS expression level in the striatum were determined according to the method as described in section 4 of General Procedures on Day 21 after the injection of 6-OHDA or the vehicle.
In addition, the optical density regarding the lesioned and unlesioned sites in the striatum and SN of the NMRI mice (e.g., the sham operated control, the pathological control, and the NMRI mice treated with product 1) was determined from the obtained photomicrographs illustrating TH expression level via ImageJ software (National Institutes of Health). The relative optical density was calculated using the following formula:
where J=relative optical density • K=optical density of the lesioned site • L=optical density of the unlesioned site

Molecules are shown by their SMILES.

`C=CCc1cc(-c2ccc(O)c(CC=C)c2)ccc1O` [compound 55, 3,3′-diallyl-biphenyl-4,4′-diol]: in data set [1], the “prevention of cell death (relative cell viability) after exposure to CHP” value is on record as “significantly prevented cell death” and the “prevention of cell death (relative cell viability) after exposure to TBHP” value is recorded as “significantly prevented cell death”.
Regarding `C=CCc1ccc(O)c(-c2cc(CC=C)ccc2O)c1` [magnolol, reference compound], the “neuroprotective effects via anti-oxidative abilities and antagonist actions against excitotoxicity” value in data set [2] was “able to exert neuroprotective effects”. Besides, the “alleviation of inflammatory pain in an animal model” value in the data set with inflammatory pain is “effective in alleviating inflammatory pain”.
On to `C=CCc1cc(-c2cc(CCC)ccc2O)ccc1O` [product 2, 3′-Allyl-5-propyl-biphenyl-2,4′-diol], for which, in data set [3], the “concentration dependence of alleviation of MPP+ cytotoxicity” value (“concentration dependence” below) is “alleviated the cytotoxicity of MPP^+ in a concentration-dependent manner”. Moreover, the “unilateral rotations (apomorphine-induced), subchronic post-treatment, 0.1 mg/kg” value in data set [4] (0.1 mg/kg i.p., 14 consecutive days starting Day 7 after 6-OHDA, FIG. 13) is “significantly inhibited unilateral rotations”. Also, in data set [4] (0.5 mg/kg i.p., 14 consecutive days starting Day 7 after 6-OHDA, FIG. 13), the “unilateral rotations (apomorphine-induced), subchronic post-treatment, 0.5 mg/kg” value was “significantly inhibited unilateral rotations”. Further, the “unilateral rotations (apomorphine-induced), subchronic post-treatment, 1 mg/kg” value in data set [4] (1 mg/kg i.p., 14 consecutive days starting Day 7 after 6-OHDA, FIG. 13) is “significantly inhibited unilateral rotations”. Further, the “restoring activity against neurotoxin-induced motor dysfunction compared with product 1” value in data set [4] (subchronic post-treatment, 14 days starting Day 7 after 6-OHDA) was “more potent restoring activity”. Also, in data set [5] (FIGS. 14, 15(A)), the “loss of TH-ir fibers in the striatum, subchronic post-treatment” value is “significantly alleviated the loss of TH-ir fibers”. Also, the “loss of TH-ir fibers in the substantia nigra (SN), subchronic post-treatment” value in data set [5] (FIGS. 14, 15(B)) is “significantly alleviated the loss of TH-ir fibers”. For the same molecule, in data set [1], the “prevention of cell death (relative cell viability) after exposure to CHP” value is reported as “significantly prevented cell death” and the “prevention of cell death (relative cell viability) after exposure to TBHP” value is “significantly prevented cell death”. In addition, in data set [1] (10 μM, CHP 300 μM 3 hours), the “rank among the tested biphenolic compounds in preventing cell death, CHP” value is given as “the most effective in preventing cell death among them”. Also, the “rank among the tested biphenolic compounds in preventing cell death, TBHP” value in data set [1] (10 μM, TBHP 300 μM 3 hours) is reported as “the most effective in preventing cell death among them”.
As to `CCCc1ccc(O)c(-c2ccc(O)c(CCC)c2)c1` [product 3, 5,3′-Dipropyl-biphenyl-2,4′-diol], the “concentration dependence” value in data set [3] is given as “alleviated the cytotoxicity of MPP^+ in a concentration-dependent manner”. For the same molecule, in data set [1], the “prevention of cell death (relative cell viability) after exposure to CHP” value is on record as “significantly prevented cell death” and the “prevention of cell death (relative cell viability) after exposure to TBHP” value is given as “significantly prevented cell death”.
Regarding `C=CCc1ccc(O)c(-c2ccc(O)c(CCC)c2)c1` [product 4, 5-Allyl-3′-propyl-biphenyl-2,4′-diol], the “concentration dependence” value in data set [3] was “alleviated the cytotoxicity of MPP^+ in a concentration-dependent manner”. In addition, in data set [1], the “prevention of cell death (relative cell viability) after exposure to CHP” value is given as “significantly prevented cell death” and the “prevention of cell death (relative cell viability) after exposure to TBHP” value is given as “significantly prevented cell death”.
Consider `C#CCc1ccc(O)c(-c2ccc(O)c(CC=C)c2)c1` [product 5, 3′-Allyl-5-prop-2-ynyl-biphenyl-2,4′-diol], for which, in data set [3], the “concentration dependence” value was “alleviated the cytotoxicity of MPP^+ in a concentration-dependent manner”. In data set [1], the “prevention of cell death (relative cell viability) after exposure to CHP” value is given as “significantly prevented cell death” and the “prevention of cell death (relative cell viability) after exposure to TBHP” value is reported as “significantly prevented cell death”.
On to `C=CCc1cc(-c2cccc(O)c2CC=C)ccc1O` [product 7, 2,3′-Diallyl-biphenyl-3,4′-diol], for which the “concentration dependence” value in data set [3] is “alleviated the cytotoxicity of MPP^+ in a concentration-dependent manner”. Besides, in data set [1], the “prevention of cell death (relative cell viability) after exposure to CHP” value is on record as “significantly prevented cell death” and the “prevention of cell death (relative cell viability) after exposure to TBHP” value is given as “significantly prevented cell death”.
